Test system: formation of C3-C5 alcohols
Test: Inhibition of C3-C5 alcohols formation in alcohol fermentation by yeast
Assay type: cell-based
Settings: for effect on formation of C3-C5 alcohols: present in the substrate in addition to valine, leucine and isoleucine; for inhibition constant: formation of C3-C5 alcohols in alcohol fermentation
Description: Formation of C3-C5 alcohols is a result of active functioning of the process of deamination of amino acids in the yeast cells with formation of free ammonia. […] The yield of C3-C5 alcohols reached 3.1% of ethanol when pure valine, isoleucine, and leucine were the sole source of nitrogen nutrition of the yeast in the inventive fermentation process. Moreover, the maximum formation of C3-C5 alcohols in the inventive process of alcohol fermentation occurred at pH=6.0 of the medium and at 38° C. (standard conditions of alcohol fermentation pH 4.5-5.5; temperature 28-34° C.).

[1] = system with leucine as amino acid

Row | inhibition constant (system with valine as amino acid) | SMILES | effect on formation of C3-C5 alcohols | inhibition constant [1]
1 | 650 mg/L | NC(=O)C[C@H](N)C(=O)O [asparagine] | inhibits formation of C3-C5 alcohols | 730 mg/L
2 | – | N [ammonium ions] | inhibits formation of C3-C5 alcohols | –
3 | – | N.N.O=S(=O)(O)O [ammonium sulphate] | – | 750 mg/L
